Data taken from patent US6379930B1, “Stabilization of nucleic acid amplification cocktails” (Applied Gene Technologies, Inc., priority 1999, dated 2002).

Legend:
[1] = system: PCR of whole genomic mycobacterial DNA (Taq polymerase, primers Tb11 and Tb12); assay: Reversible inhibition of PCR amplification by DNA binding ligand, product analyzed by gel electrophoresis; assay type: biochemical
Description: AMT is purchased from Sigma Chem. Co., St. Louis, Mo. A stock solution of 5 mg/mL AMT is prepared in de-ionized water. An amplification cocktail is prepared containing 200 picomoles of primers Tb11 and Tb12 (Devallois et al., J. Clin. Microbiol., 35:2669-73 (1997)), 1.25 units of Taq polymerase/100 μL, 200 μM dNTPs and 0.05 mg/mL AMT in a Tris-EDTA buffer, pH 7. A corresponding solution without AMT is prepared as a control.
Amplification is performed in Eppendorf tubes to which are added 0.5 μg of whole genomic mycobacterial DNA in 50 μl of buffer and either 1 μl or 10 μl of the amplification cocktail. Final volume is adjusted to 100 μl with the aqueous buffer solution (without AMT) so that the final concentrations of all PCR components, except AMT, is the same in all replicates. Controls received an amplification cocktail without AMT.
PCR amplification is performed for 45 cycles (92° C.-56° C.-72° C.; denaturation, annealing, extension) and the product analyzed by gel electrophoresis. […]

[2] = system: transcription mediated amplification reaction; settings: Della-Latta et al. 1999; cited from earlier work
ligase chain reaction = settings: Notomi et al. 1998; cited from earlier work
nucleic acids = settings: Haq et al. 1997; cited from earlier work

## Cc1oc2c(C)c3oc(=O)cc(C)c3cc2c1CN [AMT, 4′-aminomethyltrioxsalen]
[1]; 0.5 μg/mL AMT, 45 cycles
  amplification product in PCR: detectable amplification product is produced
[1]; 5 μg/mL AMT, 45 cycles
  inhibition of the PCR: complete inhibition
[1]; lower concentrations of AMT: 5 ng/mL and 0.5 ng/mL
  amount of amplification product: continues to increase

## O=P(O)(O)O [phosphate ion]
[2]
  inhibitory concentration for a transcription mediated reaction: about 0.7 mM
Ligase chain reaction
  concentration inhibitory for a ligase chain reaction: above 1.2 mM

## CN1CCN(c2ccc3[nH]c(-c4ccc5[nH]c(-c6ccc(O)cc6)nc5c4)nc3c2)CC1 [Hoechst 33258]
Nucleic acids
  affinity for nucleic acid: ≤ 3.2e+08 M⁻¹
